Test results taken from ChEMBL document CHEMBL1649268, “Comparative in vitro activity profile of oritavancin against recent gram-positive clinical isolates” (2009).
Values after ≈ are worked out from the molar mass of the structure shown.

Legend:
Assay type in all cases: functional
Staphylococcus aureus [1] = experiment: Antimicrobial activity against heterogeneous vancomycin-intermediate Staphylococcus aureus clinical isolates
Enterococcus faecalis [2] = experiment: Antimicrobial activity against Enterococcus faecalis expressing VanB gene clinical isolates by broth microdilution method
Streptococcus pyogenes [3] = experiment: Antimicrobial activity against erythromycin-susceptible Streptococcus pyogenes clinical isolates by broth microdilution method
[4] = test system: Staphylococcus haemolyticus; experiment: Antimicrobial activity against oxacillin-susceptible Staphylococcus haemolyticus clinical isolates by broth microdilution method
Enterococcus faecium [5] = experiment: Antimicrobial activity against Enterococcus faecium clinical isolates by broth microdilution method
[6] = Antimicrobial activity against erythromycin-nonsusceptible Streptococcus Group G clinical isolates by broth microdilution method; conditions: Streptococcus sp. 'group G'
Enterococcus faecium [7] = experiment: Antimicrobial activity against vancomycin-susceptible Enterococcus faecium clinical isolates by broth microdilution method
Staphylococcus aureus [8] = experiment: Antimicrobial activity against vancomycin- susceptible Staphylococcus aureus clinical isolates
Streptococcus pneumoniae [9] = experiment: Antimicrobial activity against penicillin-resistant Streptococcus pneumoniae clinical isolates by broth microdilution method
Staphylococcus aureus [10] = experiment: Antimicrobial activity against oxacillin-susceptible Staphylococcus aureus clinical isolates by broth microdilution method
Streptococcus pneumoniae [11] = experiment: Antimicrobial activity against penicillin-intermediate Streptococcus pneumoniae clinical isolates by broth microdilution method
[12] = Antimicrobial activity against Streptococcus Group G clinical isolates by broth microdilution method; conditions: Streptococcus sp. 'group G'
Streptococcus agalactiae [13] = experiment: Antimicrobial activity against Streptococcus agalactiae clinical isolates by broth microdilution method
Enterococcus faecalis [14] = experiment: Antimicrobial activity against Enterococcus faecalis clinical isolates by broth microdilution method
Enterococcus faecium [15] = experiment: Antimicrobial activity against vancomycin-nonsusceptible Enterococcus faecium clinical isolates by broth microdilution method
[16] = test system: Staphylococcus haemolyticus; experiment: Antimicrobial activity against Staphylococcus haemolyticus clinical isolates by broth microdilution method
Streptococcus [17] = experiment: Antimicrobial activity against erythromycin-nonsusceptible Streptococcus Group F clinical isolates by broth microdilution method
[18] = Antimicrobial activity against erythromycin-susceptible Streptococcus Group C clinical isolates by broth microdilution method; conditions: Streptococcus sp. 'group C'
Enterococcus faecalis [19] = experiment: Antimicrobial activity against vancomycin-nonsusceptible Enterococcus faecalis clinical isolates by broth microdilution method
Staphylococcus aureus [20] = experiment: Antimicrobial activity against vancomycin-resistant Staphylococcus aureus clinical isolates
Streptococcus [21] = experiment: Antimicrobial activity against Streptococcus Group F clinical isolates by broth microdilution method
Streptococcus pneumoniae [22] = experiment: Antimicrobial activity against penicillin-susceptible Streptococcus pneumoniae clinical isolates by broth microdilution method
Staphylococcus aureus [23] = experiment: Antimicrobial activity against Staphylococcus aureus clinical isolates by broth microdilution method
Enterococcus faecalis [24] = experiment: Antimicrobial activity against Enterococcus faecalis expressing VanA gene clinical isolates by broth microdilution method
[25] = Antimicrobial activity against erythromycin-susceptible Streptococcus Group G clinical isolates by broth microdilution method; conditions: Streptococcus sp. 'group G'
Streptococcus agalactiae [26] = experiment: Antimicrobial activity against erythromycin-nonsusceptible Streptococcus agalactiae clinical isolates by broth microdilution method
[27] = test system: Staphylococcus epidermidis; experiment: Antimicrobial activity against oxacillin-susceptible Staphylococcus epidermidis clinical isolates by broth microdilution method
Streptococcus pyogenes [28] = experiment: Antimicrobial activity against erythromycin-nonsusceptible Streptococcus pyogenes clinical isolates by broth microdilution method
[29] = Antimicrobial activity against Streptococcus Group C clinical isolates by broth microdilution method; conditions: Streptococcus sp. 'group C'
Enterococcus faecium [30] = experiment: Antimicrobial activity against Enterococcus faecium expressing VanA gene clinical isolates by broth microdilution method
[31] = Antimicrobial activity against erythromycin-nonsusceptible Streptococcus Group C clinical isolates by broth microdilution method; conditions: Streptococcus sp. 'group C'
Streptococcus pneumoniae [32] = experiment: Antimicrobial activity against Streptococcus pneumoniae clinical isolates by broth microdilution method
[33] = test system: Staphylococcus epidermidis; experiment: Antimicrobial activity against Staphylococcus epidermidis clinical isolates by broth microdilution method
Streptococcus pyogenes [34] = experiment: Antimicrobial activity against Streptococcus pyogenes clinical isolates by broth microdilution method
Staphylococcus aureus [35] = experiment: Antimicrobial activity against oxacillin-resistant Staphylococcus aureus clinical isolates by broth microdilution method
Enterococcus faecalis [36] = experiment: Antimicrobial activity against vancomycin-susceptible Enterococcus faecalis clinical isolates by broth microdilution method
Streptococcus [37] = experiment: Antimicrobial activity against erythromycin-susceptible Streptococcus Group F clinical isolates by broth microdilution method
[38] = test system: Staphylococcus haemolyticus; experiment: Antimicrobial activity against oxacillin-resistant Staphylococcus haemolyticus clinical isolates by broth microdilution method
Streptococcus agalactiae [39] = experiment: Antimicrobial activity against erythromycin-susceptible Streptococcus agalactiae clinical isolates by broth microdilution method
Enterococcus faecium [40] = experiment: Antimicrobial activity against Enterococcus faecium expressing VanB gene clinical isolates by broth microdilution method
[41] = test system: Staphylococcus epidermidis; experiment: Antimicrobial activity against oxacillin-resistant Staphylococcus epidermidis clinical isolates by broth microdilution method
Staphylococcus aureus [42] = experiment: Antimicrobial activity against vancomycin-intermediate Staphylococcus aureus clinical isolates

`CN[C@H](CC(C)C)C(=O)N[C@H]1C(=O)N[C@@H](CC(N)=O)C(=O)N[C@H]2C(=O)N[C@H]3C(=O)N[C@H](C(=O)N[C@H](C(=O)O)c4cc(O)cc(O)c4-c4cc3ccc4O)[C@H](O[C@H]3C[C@](C)(N)[C@@H](O)[C@H](C)O3)c3ccc(c(Cl)c3)Oc3cc2cc(c3O[C@@H]2O[C@H](CO)[C@@H](O)[C@H](O)[C@H]2O[C@H]2C[C@](C)(NCc3ccc(-c4ccc(Cl)cc4)cc3)[C@@H](O)[C@H](C)O2)Oc2ccc(cc2Cl)[C@H]1O` [ORITAVANCIN] showed an MIC90 (Staphylococcus aureus [1]) of 1 µg/mL (≈ 0.558 µM), an MIC90 (Enterococcus faecalis [2]) of 0.06 µg/mL (≈ 0.0335 µM) and an MIC90 (Streptococcus pyogenes [3]) of 0.25 µg/mL (≈ 0.139 µM). It also gave an MIC90 [4] of 0.06 µg/mL (≈ 0.0335 µM), an MIC90 (Enterococcus faecium [5]) of 0.12 µg/mL (≈ 0.0669 µM) and an MIC90 [6] of 0.25 µg/mL (≈ 0.139 µM). It also gave an MIC90 (Enterococcus faecium [7]) of 0.03 µg/mL (≈ 0.0167 µM), an MIC90 (Staphylococcus aureus [8]) of 0.12 µg/mL (≈ 0.0669 µM) and an MIC90 (Streptococcus pneumoniae [9]) of 0.008 µg/mL (≈ 0.00446 µM). It also gave an MIC90 (Staphylococcus aureus [10]) of 0.12 µg/mL (≈ 0.0669 µM), an MIC90 (Streptococcus pneumoniae [11]) of 0.008 µg/mL (≈ 0.00446 µM) and an MIC90 [12] of 0.5 µg/mL (≈ 0.279 µM). The MIC90 (Streptococcus agalactiae [13]) was 0.25 µg/mL (≈ 0.139 µM), the MIC90 (Enterococcus faecalis [14]) was 0.06 µg/mL (≈ 0.0335 µM) and the MIC90 (Enterococcus faecium [15]) was 0.25 µg/mL (≈ 0.139 µM). For the same compound, the MIC90 [16] was 0.12 µg/mL (≈ 0.0669 µM), the MIC90 (Streptococcus [17]) was 0.25 µg/mL (≈ 0.139 µM) and the MIC [18] was at most 0.0005 µg/mL. For the same compound, the MIC90 (Enterococcus faecalis [19]) was 1 µg/mL (≈ 0.558 µM), the MIC90 (Staphylococcus aureus [20]) was 0.5 µg/mL (≈ 0.279 µM) and the MIC90 (Streptococcus [21]) was 0.5 µg/mL (≈ 0.279 µM). The MIC90 (Streptococcus pneumoniae [22]) was 0.004 µg/mL (≈ 0.00223 µM), the MIC90 (Staphylococcus aureus [23]) was 0.12 µg/mL (≈ 0.0669 µM) and the MIC90 (Enterococcus faecalis [24]) was 1 µg/mL (≈ 0.558 µM). The MIC90 [25] was 0.5 µg/mL (≈ 0.279 µM), the MIC90 (Streptococcus agalactiae [26]) was 0.25 µg/mL (≈ 0.139 µM) and the MIC90 [27] was 0.25 µg/mL (≈ 0.139 µM). It also gave an MIC90 (Streptococcus pyogenes [28]) of 0.25 µg/mL (≈ 0.139 µM), an MIC90 [29] of 0.5 µg/mL (≈ 0.279 µM) and an MIC90 (Enterococcus faecium [30]) of 0.25 µg/mL (≈ 0.139 µM). For the same compound, the MIC90 [31] was 0.25 µg/mL (≈ 0.139 µM), the MIC90 (Streptococcus pneumoniae [32]) was 0.008 µg/mL (≈ 0.00446 µM) and the MIC90 [33] was 0.25 µg/mL (≈ 0.139 µM). It also gave an MIC90 (Streptococcus pyogenes [34]) of 0.25 µg/mL (≈ 0.139 µM), an MIC90 (Staphylococcus aureus [35]) of 0.12 µg/mL (≈ 0.0669 µM) and an MIC90 (Enterococcus faecalis [36]) of 0.06 µg/mL (≈ 0.0335 µM). The MIC90 (Streptococcus [37]) was 0.5 µg/mL (≈ 0.279 µM), the MIC90 [38] was 0.12 µg/mL (≈ 0.0669 µM) and the MIC90 (Streptococcus agalactiae [39]) was 0.25 µg/mL (≈ 0.139 µM). It also gave an MIC90 (Enterococcus faecium [40]) of 0.06 µg/mL (≈ 0.0335 µM), an MIC90 [41] of 0.25 µg/mL (≈ 0.139 µM) and an MIC90 (Staphylococcus aureus [42]) of 1 µg/mL (≈ 0.558 µM).
